Here are results for one compound from patent publication US7019139B2, “Quinolinones and uses thereof” (ARIAD Pharmaceuticals, Inc., priority 2001, dated 2006).

This experiment in a line: Hydroxyapatite assay (hydroxyapatite adsorption chromatography, bone-targeting potential). It is filed as binding. Conditions: corrected K = (retention time-void time)/void on TSK-Gel HA 1000 HPLC column; linear gradient 10 mM to 500 mM sodium phosphate, 0.15 N NaCl, pH 6.8. How it is done:
Hydroxyapatite is the principal mineral component of bone. Hydroxyapatite adsorption chromatography is used as an assay to evaluate the bone-targeting potential of both individual bone-targeting moieties (“monomers”) and of pharmaceuticals incorporating bone-targeting groups.
This K value is corrected using two reference compounds to correct from inter-column and inter-system variation to obtain a K′ value.
Reference Compounds: K′ values were determined for known bone targeted compounds, the bisphosphonate, alendronate and tetracycline.

Each structure is given as a SMILES string.

Turning to `NCCCC(O)(P(=O)(O)O)P(=O)(O)O` [Alendronate, alendronate], the “K′ value” came to 3.7.
